Assay results taken from US5237060A, “Process of preparing enantiomerically pure 1,8-bridged 4-quinolone-3-carboxylic acids” (Bayer Aktiengesellschaft, priority 1985, dated 1993).
≈ marks a conversion by molar mass, not a printed value. Read-outs that look alike come from different tables or passages of the source.

Columns and labels:
Experiment in all cases: MIC, agar dilution test (isosensitest medium)
Type in all cases: cell-based
[1] = tested on: Providencia 12012
Source text: (§1) Agar dilution test (isosensitest medium); Denley multipoint inoculator

[2] = tested on: E. coli T 7; conditions: Escherichia coli, T7
Source text: as §1

[3] = tested on: Klebsiella 6318
Source text: as §1

[4] = tested on: E. coli 4418; conditions: Escherichia coli
Source text: as §1

[5] = tested on: Pseudomonas Ellsworth
Source text: as §1

[6] = tested on: Staph. 133
Source text: as §1

[7] = tested on: Staph. 1756
Source text: as §1

[8] = tested on: Proteus Vulg. 1017
Source text: as §1

[9] = tested on: Strepto 9790
Source text: as §1

[10] = tested on: Staph. F 422
Source text: as §1

[11] = tested on: Proteus 1875
Source text: as §1

[12] = tested on: Klebsiella 63
Source text: as §1

[13] = tested on: Klebsiella 57 USA
Source text: as §1

[14] = tested on: Pseudomonas Walter
Source text: as §1

[15] = tested on: E. coli A 261; conditions: Escherichia coli, A261
Source text: as §1

[16] = Klebsiella 6318, agar dilution, read-out: MIC
[17] = E. coli 4418, agar dilution, read-out: MIC
[18] = Klebsiella 57 USA, agar dilution, read-out: MIC
[19] = Proteus Vulg. 1017, agar dilution, read-out: MIC
[20] = Proteus 1875, agar dilution, read-out: MIC
[21] = Klebsiella 63, agar dilution, read-out: MIC

## CC1COc2c(N3CCN(C)CC3)c(F)cc3c(=O)c(C(=O)O)cn1c23 (racemic) [Ofloxacin, reference compound]
[1]
  MIC: 0.25 µg/mL (≈ 0.692 µM)
[2]
  MIC: 0.06 µg/mL (≈ 0.166 µM)
[3]; [16]
  MIC: 0.25 µg/mL (≈ 0.692 µM)
[4]; [17]
  MIC: 0.25 µg/mL (≈ 0.692 µM)
[5]
  MIC: 0.5 µg/mL (≈ 1.38 µM)
[6]
  MIC: 0.5 µg/mL (≈ 1.38 µM)
[7]
  MIC: 0.5 µg/mL (≈ 1.38 µM)
[8]
  MIC: 0.125 µg/mL (≈ 0.346 µM)
[9]
  MIC: 2 µg/mL (≈ 5.53 µM)
[10]
  MIC: 0.5 µg/mL (≈ 1.38 µM)
[11]
  MIC: 0.125 µg/mL (≈ 0.346 µM)
[12]; Klebsiella, 63
  MIC: 0.125 µg/mL (≈ 0.346 µM)
[13]; [18]
  MIC: 0.25 µg/mL (≈ 0.692 µM)
[14]
  MIC: 2 µg/mL (≈ 5.53 µM)
[15]
  MIC: 0.03 µg/mL (≈ 0.083 µM)

## C[C@H]1COc2c(N3CCN(C)CC3)c(F)cc3c(=O)c(C(=O)O)cn1c23 [Example 4, 3S-9-fluoro-3-methyl-10(4-methyl-1-piperazinyl)-7-oxo-7H-pyrido[1,2,3-de][1,4]-benzoxazine-6-carboxylic acid]
[1]
  MIC: 0.06 µg/mL (≈ 0.166 µM)
[2]
  MIC: 0.03 µg/mL (≈ 0.083 µM)
[3]; Klebsiella, 6318
  MIC: 0.125 µg/mL (≈ 0.346 µM)
[4]; 4418
  MIC: 0.125 µg/mL (≈ 0.346 µM)
[5]
  MIC: 0.25 µg/mL (≈ 0.692 µM)
[6]
  MIC: 0.25 µg/mL (≈ 0.692 µM)
[7]
  MIC: 0.25 µg/mL (≈ 0.692 µM)
[8]; [19]
  MIC: 0.06 µg/mL (≈ 0.166 µM)
[9]
  MIC: 1 µg/mL (≈ 2.77 µM)
[10]
  MIC: 0.25 µg/mL (≈ 0.692 µM)
[11]; [20]
  MIC: 0.06 µg/mL (≈ 0.166 µM)
[12]; [21]
  MIC: 0.06 µg/mL (≈ 0.166 µM)
[13]; Klebsiella, 57USA
  MIC: 0.125 µg/mL (≈ 0.346 µM)
[14]
  MIC: 1 µg/mL (≈ 2.77 µM)
[15]
  MIC: ≤ 0.015 µg/mL

## C[C@@H]1COc2c(N3CCN(C)CC3)c(F)cc3c(=O)c(C(=O)O)cn1c23 [Example 16, 3R-9-fluoro-3-methyl-10(4-methyl-1-piperazinyl)-7-oxo-7H-pyrido[1,2,3-de][1,4]-benzoxazine-6-carboxylic acid]
[1]
  MIC: 4 µg/mL (≈ 11.1 µM)
[2]
  MIC: 1 µg/mL (≈ 2.77 µM)
[3]; [16]
  MIC: 4 µg/mL (≈ 11.1 µM)
[4]; [17]
  MIC: 2 µg/mL (≈ 5.53 µM)
[5]
  MIC: 4 µg/mL (≈ 11.1 µM)
[6]
  MIC: 8 µg/mL (≈ 22.1 µM)
[7]
  MIC: 8 µg/mL (≈ 22.1 µM)
[8]; [19]
  MIC: 2 µg/mL (≈ 5.53 µM)
[9]
  MIC: 32 µg/mL (≈ 88.6 µM)
[10]
  MIC: 16 µg/mL (≈ 44.3 µM)
[11]; [20]
  MIC: 4 µg/mL (≈ 11.1 µM)
[12]; [21]
  MIC: 2 µg/mL (≈ 5.53 µM)
[13]; [18]
  MIC: 4 µg/mL (≈ 11.1 µM)
[14]
  MIC: 32 µg/mL (≈ 88.6 µM)
[15]
  MIC: 0.25 µg/mL (≈ 0.692 µM)
